Results taken from the NIST ThermoML archive (doi:10.1016/j.jct.2005.10.004).
Several values for one entry are separate records, joined by “and”; a condition that tells them apart may be missing. Equal values may be shown once.

Conditions: Liquid, Buoyancy - hydrostatic balance with magnetic suspension - one sinker

N#N [nitrogen]
Conditions	mass density
249.96 K, 5023.9 kPa	69.8983 kg/m3
249.96 K, 5024.2 kPa	69.9018 kg/m3
249.96 K, 10070 kPa	141.612 kg/m3
249.96 K, 15267 kPa	211.548 kg/m3
249.96 K, 15270 kPa	211.579 kg/m3 and 211.588 kg/m3
249.96 K, 19857 kPa	266.561 kg/m3
250 K, 4994.5 kPa	69.4686 kg/m3
274.97 K, 10066 kPa	125.016 kg/m3 and 125.014 kg/m3
274.97 K, 19871 kPa	235.319 kg/m3
274.97 K, 19875 kPa	235.358 kg/m3
299.97 K, 10974 kPa	122.253 kg/m3
299.97 K, 13855 kPa	152.56 kg/m3 and 152.561 kg/m3
299.97 K, 16780 kPa	181.982 kg/m3
299.98 K, 16788 kPa	182.05 kg/m3
399.99 K, 10101 kPa	81.9701 kg/m3
399.99 K, 14807 kPa	117.441 kg/m3
399.99 K, 17250 kPa	135.043 kg/m3
400 K, 7435.4 kPa	61.0376 kg/m3
400 K, 10100 kPa	81.9663 kg/m3
400 K, 19953 kPa	153.853 kg/m3
400 K, 19959 kPa	153.899 kg/m3
